Molecules are shown by their SMILES.

Our source for the LC retention time values is the RepoRT retention time repository (doi:10.1016/j.foodchem.2018.09.045).

A short description of the data set: RP, Thermo Scientific Syncronis C18, 100 × 2.1 mm, 1.7 µm, 0.3 mL/min, estimated dead time 0.73 min; A: water + 0.1% acetic acid; B: acetonitrile + 0.1% acetic acid; gradient (min/%B) 0/5 1/5 16/95. As to conditions: stereoisomer not certain.

Take `O=c1cc(-c2ccccc2)oc2cc(O)cc(O)c12`: the LC retention time was 11.6 min.
In the case of `O=c1c(OC2OC(CO)C(O)C(O)C2O)c(-c2ccc(O)c(O)c2)oc2cc(O)cc(O)c12` (stereo unspecified), the LC retention time is 6.71 min.
As to `COc1cc(O)c2c(=O)cc(-c3ccc(O)cc3)oc2c1`, the LC retention time is 10.8 min.
Turning to `O=c1cc(-c2ccc(O)cc2)oc2cc(O)cc(O)c12`, the LC retention time is 9.52 min.
Regarding `O=C(O)C=Cc1ccc(O)cc1`, the LC retention time was 6.68 min.
As to `O=C1CC(c2ccc(O)cc2)Oc2cc(O)cc(O)c21` (stereo unspecified), the LC retention time is 9.44 min.
For `CC1OC(OC2C(Oc3cc(O)c4c(c3)OC(c3ccc(O)cc3)CC4=O)OC(CO)C(O)C2O)C(O)C(O)C1O` (stereo unspecified), the LC retention time is 7.03 min.
As for `O=C(C=Cc1ccc(O)c(O)c1)OC1CC(O)(C(=O)O)CC(O)C1O` (stereo unspecified), the LC retention time is 5.26 min.
Then `COc1cc(C=CC(=O)O)ccc1O`, with 7.04 min.
With `O=C(O)c1cc(O)ccc1O`, the LC retention time was 5.48 min.
Then `O=C1c2c(O)cc(O)cc2OC(c2ccccc2)C1O` (stereo unspecified), with 9.74 min; and `COc1cc(-c2cc(=O)c3c(O)cc(O)cc3o2)ccc1O`, with 9.94 min; and `O=c1c(O)c(-c2ccc(O)cc2)oc2cc(O)cc(O)c12`, with 9.7 min.
The same measure for `O=c1c(-c2ccc(O)cc2)coc2cc(O)cc(O)c12`: 9.53 min.
`O=C(O)Cc1ccc(O)cc1`: the LC retention time was 5.62 min.
With `COc1ccc(-c2cc(=O)c3c(O)cc(O)cc3o2)cc1`, the LC retention time is 12.2 min.
Regarding `COc1cc(-c2oc3cc(O)cc(O)c3c(=O)c2O)ccc1O`, the LC retention time is 9.87 min.
As for `O=c1c(O)c(-c2ccccc2)oc2cc(O)cc(O)c12`, the LC retention time is 11.8 min.
For the compound `COc1cc(C=CC(=O)O)cc(OC)c1O`, the LC retention time is 7.02 min.
`COc1ccc(-c2oc3cc(O)cc(O)c3c(=O)c2O)cc1`: the LC retention time was 11.8 min.
On to `O=C1CC(c2ccc(O)c(O)c2)Oc2cc(O)cc(O)c21` (stereo unspecified), for which the LC retention time was 8.59 min.
Then `O=c1ccc2cc(OC3OC(CO)C(O)C(O)C3O)c(O)cc2o1` (stereo unspecified), with 4.91 min; and `O=c1cc(-c2ccc(O)c(O)c2)oc2cc(O)cc(O)c12`, with 8.69 min.
Then `COc1cc(C=CC=O)ccc1O`, with 7.9 min.
`CC1OC(Oc2c(-c3ccc(O)c(O)c3)oc3cc(O)cc(O)c3c2=O)C(O)C(O)C1O` (stereo unspecified): the LC retention time is 7.17 min.
Consider `O=c1c(O)c(-c2ccc(O)c(O)c2)oc2cc(O)cc(O)c12`, for which the LC retention time is 8.24 min.
In the case of `O=C(O)c1ccc(O)cc1`, the LC retention time is 5.41 min.
Turning to `COc1cc(C(=O)O)ccc1O`, the LC retention time was 5.63 min.
Then `O=C(O)c1ccc(O)c(O)c1`, with 4.44 min; and `CC1OC(OCC2OC(Oc3c(-c4ccc(O)c(O)c4)oc4cc(O)cc(O)c4c3=O)C(O)C(O)C2O)C(O)C(O)C1O` (stereo unspecified), with 6.44 min.
With `O=C1CC(c2ccccc2)Oc2cc(O)cc(O)c21` (stereo unspecified), the LC retention time is 11.7 min.
